Measured values from patent publication EP0465091B1, “Use of 3-oxygermylpropionic acid to treat cold syndrome” (SANWA KAGAKU KENKYUSHO CO., LTD., priority 1990, dated 1992).

What was measured:
[1] = see JP-A-57-53800 and US-A-4309412; cited from earlier work
[2] = system: rats; experiment: Antipyretic activity in dry yeast-induced fever (rectal temperature); format: in vivo; conditions: oral; for Changes in mean temperature, Time 1 hr: rectal temperature 1 hr from dosing; for Changes in mean temperature, Time 2 hr: rectal temperature 2 hr from dosing; for Changes in mean temperature, Time 4 hr: rectal temperature 4 hr from dosing; for Changes in mean temperature, Time 8 hr: rectal temperature 8 hr from dosing; for Changes in mean temperature, Time 0 hr: rectal temperature at 0 hr (18 hours after yeast, at dosing)
Procedure: A 20 % suspension of dry yeast was subcutaneously injected into a Wister line of (masculine) rats (weights: 170-200 g) at a dose of 1 ml/100 g to bring their rectal temperatures up to higher than 39°C(39.13 0.02 ) after the lapse of 18 hours. The drugs to be tested were orally administrated to these rats, six for each group, to measure their rectal temperatures at 1, 2, 4 and 8 hours from dosing. The drugs used were: • (1) 75 mg/Kg (50 mg/Kg calculated as 3-OGP) of the primary composition according to Preparation Example; • (2) 1 mg/Kg of indomethacin (IND); • (3) 5 mg/Kg of indomethacin (IND); • (4) 75 mg/Kg (50 mg/Kg calculated as 3-OGP) of the primary composition according to Preparation Example 1 + 1 mg/Kg of indomethacin - administer at once; and • (5) No drug - control.

[3] = primary composition 75mg/Kg, IND 1mg/Kg, or both

Compound	stability in the presence of water [1]	Changes in mean temperature, Time 1 hr ([2]; IND 5mg/Kg)	Changes in mean temperature, Time 1 hr [2, 3]	Changes in mean temperature, Time 2 hr ([2]; IND 5mg/Kg)	Changes in mean temperature, Time 2 hr [2, 3]	Changes in mean temperature, Time 4 hr ([2]; IND 5mg/Kg)	Changes in mean temperature, Time 4 hr [2, 3]	Changes in mean temperature, Time 8 hr ([2]; IND 5mg/Kg)	Changes in mean temperature, Time 8 hr [2, 3]	Changes in mean temperature, Time 0 hr ([2]; IND 5mg/Kg)	Changes in mean temperature, Time 0 hr [2, 3]
3-oxygermylpropionic acid [3-OGP]	so unstable in the presence of water that its pharmacological activity decreases drastically	–	–	–	–	–	–	–	–	–	–
COc1ccc2c(c1)c(CC(=O)O)c(C)n2C(=O)c1ccc(Cl)cc1 [IND, Indomethacin]	–	38.35 °C	38.81 °C	37.67 °C	38.65 °C	37.75 °C	38.44 °C	37.94 °C	38.30 °C	39.13 °C	39.13 °C
